Test results as given in patent US11148991B2, “5-bromo-2-(alpha-hydroxypentyl)benzoic acid sodium salts in different crystal forms, and preparation method thereof” (priority 2013, dated 2021).
Where two headings read alike, the source gives them in different places.

Columns and labels:
[1] = Stability in water and methanol solution; format: physicochemical; conditions: sodium salt
[2] = system: liver and kidney functions in rats; assay: Sub-acute toxic effect on liver and kidney functions in rats; format: in vivo; parameters: AST: unit not given here; conditions: for Albumin (ALB) / Total Proteins (TP): in g/L (unit assumed); for Creatinine (CRE): in µmol/L (unit assumed)
rat MCAO model = assay: Brain infarction volume and brain edema volume in rats with local brain ischemia (MCAO model); format: in vivo, Wistar rats; conditions: sodium salt
Source text: Wistar rats (50% of rats is female and another 50% of rats is male); 5-bromo-2-(α-hydroxypentyl)benzoic acid sodium salt (BZP, in the form of amorphous form, crystal form A and crystal form B, prepared according to the present invention), prepared in double distilled water; […] is in the form of white powder, manufactured by Beijing Chemical Works.
Administration method: 5-bromo-2-(α-hydroxypentyl)benzoic acid sodium salt (BZP) was intravenously injected at one hour before MCAO, with the dosage of 12 mg/kg; 5-bromo-2-(α-hydroxypentyl)benzoic acid sodium salt (BZP) was used to intragastric administration at one hour before MCAO, with the dosage of 20 mg/kg. 2-(α-hydroxypentyl)benzoic acid potassium salt (NBP-K) was used as positive control, and its dosage (calculated in moles) is the same as that of 5-bromo-2-(α-hydroxypentyl)benzoic acid sodium salt, that is, the dosage of intravenous injection is 9.6 mg/kg, and the dosage of intragastric administration is 15.9 mg/kg.
Preparation of MCAO model: Establish a focal brain ischemia-reperfusion injury model by cerebral artery obstruction in rats with suture-occluded method. Rats were intraperitoneally injected with 10% chloral hydrate to anesthetize. Rats were fixed on back and the skin of neck center was incised. The left common carotid artery, external carotid artery, and internal carotid artery were subjected to blunt dissection. The pterygopalatine artery was ligated, only remaining cranial trunk of internal carotid artery; a prepared nylon rope (burning diameter 0.3 mm) was inserted via external carotid artery incision into the bifurcation of the […], and was pushed along the cranial direction of the internal carotid artery. […] This indicates one side of the middle cerebral artery occlusion model was completed. Sutured the incision, remained the end of nylon line out of the skin. For reperfusion, the nylon line was gently pulled out. If feel force of resistance, this indicates the end of nylon line has returned to the trunk of external carotid artery, thereby accomplishing reperfusion.
Determination of infarction volume: After being subjected to ischemia for 2 hours and reperfusion for 24 hours, the heads of rats were cut off. Forebrain was removed and cut into six pieces, each piece being 2 mm. The pieces were stained with TC, and incubated at 37° C. for 30 minutes. Normal issues were stained to be red, but the infarcted issues were stained to be white. Took photos with digital camera, and calculated the percentage of the infarcted area relative to the spherical area of brain by Photoshop.

blood routine tests = assay: Sub-acute toxic effect on blood routine tests; format: in vivo, Rat; parameters: WBC / RBC: unit not given beside the values; conditions: for PLT: in 10^9/L (unit assumed); for Lymphocyte (LYM): in % (unit assumed); for HGB: in g/L (unit assumed)
[3] = Solubility in water and methanol; format: physicochemical
[4] = system: blood coagulation functions in rats; assay: Sub-acute toxic effect on blood coagulation functions in rats; format: in vivo
[5] = Acute toxicity (LD50), mouse; conditions: in vivo
[6] = rats F, iv (12 mg/kg), in U/L (unit assumed)
[7] = intragastric administration one hour before MCAO, BZP 20 mg/kg, NBP-K 15.9 mg/kg
[8] = intravenous injection one hour before MCAO, 12 mg/kg, 12 mg/kg

CCCCC(O)c1ccc(Br)cc1C(=O)[O-].[Na+] (stereo not drawn) [BZP (amorphous form), 5-bromo-2-(α-hydroxypentyl)benzoic acid sodium salt]
Stability ([1]; in methanol solution): >24 h | Stability ([1]; in water): >24 h | AST ([2]; rats F, ig (20 mg/kg)): 168.00 ± 17.19 | Blood urea nitrogen (BUN) ([2]; rats F, ig (20 mg/kg)): 3.80 ± 0.59 | Total Bilirubin (TBIL) ([2]; rats F, ig (20 mg/kg)): 2.10 ± 0.40 | Creatinine kinase (CK) ([2]; rats F, ig (20 mg/kg), in U/L (unit assumed)): 776.00 ± 437.68 | Albumin (ALB) ([2]; rats F, ig (20 mg/kg)): 32.43 ± 1.14 | Total Proteins (TP) ([2]; rats F, ig (20 mg/kg)): 46.63 ± 1.07 | Creatinine (CRE) ([2]; rats F, ig (20 mg/kg)): 57.50 ± 3.11 | AST ([2]; rats F, iv (12 mg/kg)): 202.40 ± 68.12 | Blood urea nitrogen (BUN) ([2]; rats F, iv (12 mg/kg)): 4.00 ± 0.43 | Total Bilirubin (TBIL) ([2]; rats F, iv (12 mg/kg)): 2.72 ± 0.67 | ALT [2, 6]: 38.00 ± 9.82 | Creatinine kinase (CK) [2, 6]: 636.80 ± 536.05 | Albumin (ALB) ([2]; rats F, iv (12 mg/kg)): 33.96 ± 1.71 | Total Proteins (TP) ([2]; rats F, iv (12 mg/kg)): 49.00 ± 0.79 | Creatinine (CRE) ([2]; rats F, iv (12 mg/kg)): 55.40 ± 2.30 | AST ([2]; rats M, ig (20 mg/kg)): 4.92 ± 0.75 | Blood urea nitrogen (BUN) ([2]; rats M, ig (20 mg/kg)): 2.76 ± 1.09 | Total Bilirubin (TBIL) ([2]; rats M, ig (20 mg/kg)): 2.24 ± 1.50 | Creatinine kinase (CK) ([2]; rats M, ig (20 mg/kg), in U/L (unit assumed)): 938.60 ± 553.43 | Albumin (ALB) ([2]; rats M, ig (20 mg/kg)): 28.98 ± 7.34 | Total Proteins (TP) ([2]; rats M, ig (20 mg/kg)): 40.26 ± 15.78 | Creatinine (CRE) ([2]; rats M, ig (20 mg/kg)): 38.80 ± 25.62 | AST ([2]; rats M, iv (12 mg/kg)): 5.34 ± 1.33 | Blood urea nitrogen (BUN) ([2]; rats M, iv (12 mg/kg)): 3.46 ± 0.72 | Total Bilirubin (TBIL) ([2]; rats M, iv (12 mg/kg)): 3.10 ± 1.23 | Creatinine kinase (CK) ([2]; rats M, iv (12 mg/kg), in U/L (unit assumed)): 762.00 ± 351.72 | Albumin (ALB) ([2]; rats M, iv (12 mg/kg)): 36.90 ± 6.72 | Total Proteins (TP) ([2]; rats M, iv (12 mg/kg)): 53.40 ± 8.69 | Creatinine (CRE) ([2]; rats M, iv (12 mg/kg)): 66.60 ± 15.09 | Edema (%) (rat MCAO model; [7]): 2.24 ± 1.66^aa** % | Infarction volume (%) (rat MCAO model; [7]): 5.59 ± 2.35 aa % | Inhibition of edema (%) (rat MCAO model; [7]): 88.36% | Inhibition of infarction volume (%) (rat MCAO model; [7]): 89.05% | Edema (%) (rat MCAO model; [8]): 2.56 ± 1.63 aa % | Inhibition of edema (%) (rat MCAO model; [8]): 88.58% | Infarction volume (%) (rat MCAO model; intravenous injection one hour before MCAO, BZP 12 mg/kg, NBP-K 9.6 mg/kg, ischemia 2 hours, reperfusion 24 hours): 3.46 ± 2.94 aa % | Inhibition of infarction volume (%) (rat MCAO model; intravenous injection one hour before MCAO, BZP 12 mg/kg, NBP-K 9.6 mg/kg): 93.52% | Basophil (RAS) (blood routine tests; F, ig (20 mg/kg)): 1.43 ± 1.17 | Eosinophil (EOS) (blood routine tests; F, ig (20 mg/kg)): 0.23 ± 0.12 | Monocyte (MON) (blood routine tests; F, ig (20 mg/kg)): 2.05 ± 1.74 | Neutrophil (NEU) (blood routine tests; F, ig (20 mg/kg)): 28.44 ± 10.20 | RBC (blood routine tests; F, ig (20 mg/kg)): 4.51 ± 3.30 | WBC (blood routine tests; F, ig (20 mg/kg)): 4.44 ± 2.24 | PLT (blood routine tests; F, ig (20 mg/kg)): 1146.00 ± 74.22 | Lymphocyte (LYM) (blood routine tests; F, ig (20 mg/kg)): 66.45 ± 11.13 | HGB (blood routine tests; F, ig (20 mg/kg)): 117.00 ± 19.70 | Basophil (RAS) (blood routine tests; F, iv (12 mg/kg)): 0.56 ± 0.15 | Eosinophil (EOS) (blood routine tests; F, iv (12 mg/kg)): 0.76 ± 0.50 | Monocyte (MON) (blood routine tests; F, iv (12 mg/kg)): 3.62 ± 0.63 | Neutrophil (NEU) (blood routine tests; F, iv (12 mg/kg)): 21.44 ± 2.74 | RBC (blood routine tests; F, iv (12 mg/kg)): 6.95 ± 1.06 | WBC (blood routine tests; F, iv (12 mg/kg)): 5.20 ± 1.53 | PLT (blood routine tests; F, iv (12 mg/kg)): 1075.00 ± 41.70 | Lymphocyte (LYM) (blood routine tests; F, iv (12 mg/kg)): 73.62 ± 2.16 | HGB (blood routine tests; F, iv (12 mg/kg)): 125.60 ± 16.68 | Basophil (RAS) (blood routine tests; M, ig (20 mg/kg)): 0.62 ± 0.25 | Eosinophil (EOS) (blood routine tests; M, ig (20 mg/kg)): 0.56 ± 0.50 | Monocyte (MON) (blood routine tests; M, ig (20 mg/kg)): 4.93 ± 1.91 | Neutrophil (NEU) (blood routine tests; M, ig (20 mg/kg)): 23.88 ± 5.48 | RBC (blood routine tests; M, ig (20 mg/kg)): 7.61 ± 0.28 | WBC (blood routine tests; M, ig (20 mg/kg)): 5.18 ± 0.71 | PLT (blood routine tests; M, ig (20 mg/kg)): 1258.20 ± 281.33 | Lymphocyte (LYM) (blood routine tests; M, ig (20 mg/kg)): 70.84 ± 3.99 | HGB (blood routine tests; M, ig (20 mg/kg)): 134.00 ± 19.13 | Basophil (RAS) (blood routine tests; M, iv (12 mg/kg)): 0.40 ± 0.12 | Eosinophil (EOS) (blood routine tests; M, iv (12 mg/kg)): 0.60 ± 0.29 | Monocyte (MON) (blood routine tests; M, iv (12 mg/kg)): 3.80 ± 0.70 | Neutrophil (NEU) (blood routine tests; M, iv (12 mg/kg)): 22.16 ± 4.14 | RBC (blood routine tests; M, iv (12 mg/kg)): 7.86 ± 0.40 | WBC (blood routine tests; M, iv (12 mg/kg)): 5.66 ± 2.23 | PLT (blood routine tests; M, iv (12 mg/kg)): 1087.20 ± 56.34 | Lymphocyte (LYM) (blood routine tests; M, iv (12 mg/kg)): 72.50 ± 4.66 | HGB (blood routine tests; M, iv (12 mg/kg)): 141.40 ± 7.20 | solubility ([3]; methanol, organic solvent or mixture, methanol, read-out: Solubility in methanol): 1890 mg/mL | solubility ([3]; water, read-out: Solubility in water): 2980 mg/mL | APTT ([4]; rats F, ig (20 mg/kg)): 22.8 ± 5.9 s | FIB ([4]; rats F, ig (20 mg/kg)): 7.22 ± 0.97 g/L | PT ([4]; rats F, ig (20 mg/kg)): 17.5 ± 2.2 s | TT ([4]; rats F, ig (20 mg/kg)): 27.3 ± 2.4 s | APTT ([4]; rats F, iv (12 mg/kg)): 22.3 ± 8.5 s | FIB ([4]; rats F, iv (12 mg/kg)): 6.63 ± 0.95 g/L | PT ([4]; rats F, iv (12 mg/kg)): 18.8 ± 3.3 s | TT ([4]; rats F, iv (12 mg/kg)): 27.5 ± 2.8 s | APTT ([4]; rats M, ig (20 mg/kg)): 26.5 ± 3.2 s | FIB ([4]; rats M, ig (20 mg/kg)): 7.03 ± 0.29 g/L | PT ([4]; rats M, ig (20 mg/kg)): 16.4 ± 3.4 s | TT ([4]; rats M, ig (20 mg/kg)): 26.9 ± 5.9 s | APTT ([4]; rats M, iv (12 mg/kg)): 23.7 ± 2.1 s | FIB ([4]; rats M, iv (12 mg/kg)): 6.28 ± 0.55 g/L | PT ([4]; rats M, iv (12 mg/kg)): 17.5 ± 2.0 s | TT ([4]; rats M, iv (12 mg/kg)): 27.1 ± 3.8 s | LD50 ([5]; iv): 323 mg/kg | LD50 ([5]; po): 927 mg/kg
